Results on one compound are retold here after US20240180149A1, “FIRE ANT BAITS WITH ENHANCED SELECTIVITY” (The United States of America, as represented by the …, priority 2022, published 2024).

One experiment relates to thief ants. Briefly: Two-choice field feeding bioassay on thief ants (soybean oil). The experiment is classed as in vivo, Solenopsis molesta. An excerpt:
(§1) Ant feeding bioassays—Multiple-choice and a paired two-choice bioassays were used in this study. An exemplary schematic of the multichoice bioassay field feeding setup is shown in FIG. 1A, and an exemplary schematic of the two-choice bioassay field feeding setup is shown in FIG. 1B. Soybean oil was used as a food source for all the bioassays (Great Value, purchased from Walmart in Greenville Mississippi, USA). The feeding apparatus was a filtered 1-ml pipette tip with the part 0.5 cm below the filter removed. In multiple-choice bioassays, five concentrations of the test compounds were tested with untreated soybean oil as a control, and in two-choice bioassays, the compound at certain concentration was tested against the control oil. Eighty microliter soybean oil was loaded onto each filter. After being weighed, the apparatuses with oil were placed in the field for about 2 hours. The apparatuses were then collected and frozen under −40° C. to kill all ants. The apparatuses were weighed again after all ants were removed from the apparatuses. The difference in the weight of apparatuses before and after the feeding bioassays was the oil consumption. Feeding sites were at least 10 m away from each other for fire ants, and 3 m away for little black ants and for thief ants. The difference in oil consumption among/between treatment and control apparatuses was used to evaluate the effect of tested compound on the feeding of fire ants. For multiple-choice bioassays, a one-way ANOVA was performed to compare the effect of different concentrations of tested compound on the percentage of oil consumption. Tukey's HSD test was used for multiple comparisons. A paired t test was used in statistical analysis for the two-choice bioassays.
(§2) Two choice bioassays—Two-choice bioassays were conducted at six concentrations of trans-solenopsis A in soybean oil, including 6.6, 3.3, 1.7, 0.8, 0.4, and 0.2 mg/g for fire ants and little black ants, and four concentrations for thief ants including 6.6, 3.3, 1.7, and 0.8 mg/g. Feeding sites were selected using blank bait (untreated soybean oil in the feeding apparatuses). Blank baits were placed at the flagged sites for 30 minutes before the bioassay, and active feeding sites then used for the bioassays. Bioassays on fire ants were conducted in open area where most baits were hit by fire ants. Bioassays on little black ants and thief ants were conducted under the bushes, since baits under the bushes had more chances to be hit by little black ants or thief ants.

Experiment [1] concerns fire ants. The experiment can be described thus: Multiple-choice field feeding bioassay on fire ants (soybean oil). The experiment is classed as in vivo, Solenopsis invicta. As to conditions: ten concentrations 0.015-6.6 mg/g in soybean oil, two sets (P=0.076; P=0.703), one-way ANOVA.
Text: as §1, with “The difference in oil consumption among/between treatment and control apparatuses was used to evaluate the effect of tested compound on the feeding of fire ants. For multiple-choice bioassays, a one-way ANOVA was performed to compare the effect of different concentrations of tested compound on the percentage of oil consumption. Tukey's HSD test was used for multiple comparisons. A paired t test was used in statistical analysis for the two-choice bioassays.” left out

The subject of experiment [2] is fire ants. Briefly: Two-choice field feeding bioassay on fire ants (soybean oil). Type of experiment: in vivo, Solenopsis invicta. The conditions noted are these: two-choice vs control oil.
Text: as §1
Two choice bioassays—Two-choice bioassays were conducted at six concentrations of trans-solenopsis A in soybean oil, including 6.6, 3.3, 1.7, 0.8, 0.4, and 0.2 mg/g for fire ants and little black ants, and four concentrations for thief ants including 6.6, 3.3, 1.7, and 0.8 mg/g. […]

In another experiment the test system is little black ants. The experiment can be described thus: Two-choice field feeding bioassay on little black ants (soybean oil). The experiment is classed as in vivo, Monomorium minimum.
Text: as §1, §2

[3] abbreviates: two-choice vs control oil, 1.66 mg/g.
[4] abbreviates: two-choice vs control oil, 1.66 mg/g, listed as Trans-solenopsisn A.
Setting [5] is: two-choice vs control oil, 3.3 mg/g.
[6] abbreviates: two-choice vs control oil, 3.3 mg/g, listed as Trans-solenopsisn A.
Setting [7] is: two-choice vs control oil, 6.6 mg/g.
Where [8] appears, read: two-choice vs control oil, 6.6 mg/g, listed as Trans-solenopsisn A.

“Also recorded” adds a separate entry of the source.

Take `CCCCCCCCCCC[C@@H]1CCC[C@@H](C)N1` (relative stereo) [trans-solenopsin A]: the “inhibition of feeding by thief ants on soybean oil” value in the experiment on thief ants (two-choice vs control oil, 0.80 mg/g, P=0.14) is given as “not statistically significant”. Moreover, the “feeding by thief ants on soybean oil” value is “significantly inhibited the feeding” with thief ants (setting [3]); “feeding inhibition was significant” in the experiment with thief ants (setting [4]); “significantly inhibited the feeding” in the experiment on thief ants (setting [5]); “feeding inhibition was significant” with thief ants (setting [6]); “almost completely stopped; also recorded: completely shut down; also recorded: significantly inhibited the feeding” in the experiment with thief ants (setting [7]); “feeding inhibition was significant; also recorded: almost completely inhibited” in the experiment on thief ants (setting [8]). The “share of oil consumed by thief ants that was trans-solenopsin A-treated” value in the experiment with thief ants (two-choice, concentration not restated (previous sentence: 3.3 mg/g)) worked out at 1.52%. For the same compound, in the experiment on fire ants [1], the “effect on oil consumption by fire ants” value is listed as “no significant effect on oil consumption”. Besides, the “feeding preference of fire ants for soybean oil” value is given as “fed preferentially on oil treated with trans-solenopsin A; also recorded: feed preferentially on soybean oil containing trans-solenopsin A” in the experiment on fire ants [2] (0.27 mg/g (270 ppm), P=0.049); “fed preferentially on oil treated with trans-solenopsin A; also recorded: feed preferentially on soybean oil containing trans-solenopsin A” in the experiment with fire ants [2] (0.42 mg/g (420 ppm), P=0.0585); “did not significantly affect the feeding preference” with fire ants [2] (6.6 mg/g (6600 ppm), P=0.39). Moreover, the “inhibition of feeding by little black ants on soybean oil” value in the experiment with little black ants (two-choice vs control oil, 0.42 mg/g, P=0.07) is “very close to be statistically significant”. Further, the “feeding by little black ants on soybean oil” value with little black ants (two-choice vs control oil, 0.83 mg/g) is listed as “significantly inhibited the feeding”; in the experiment on little black ants (two-choice vs control oil, 0.83 mg/g, listed as Trans-solenopsisn A) it was “significantly inhibited feeding”; in the experiment on little black ants (setting [3]), “significantly inhibited the feeding”; in the experiment on little black ants (setting [4]), “significantly inhibited feeding”; with little black ants (setting [5]), “significantly inhibited the feeding”; in the experiment with little black ants (setting [6]), “significantly inhibited feeding”. Further, the “feeding by little black ants on soybean oil” value in the experiment with little black ants (setting [7]) is reported as “almost completely shut down; also recorded: significantly inhibited the feeding”; with little black ants (setting [8]) it was “significantly inhibited feeding; also recorded: almost completely inhibited”. The “concentrations that significantly inhibited feeding by little black ants” value in the experiment with little black ants (two-choice, paired t test, P<=0.045) is greater than 0.42 mg/g. For the same compound, in the experiment with little black ants (two-choice, 3.3 mg/g), the “share of oil consumed by little black ants that was trans-solenopsin A treated” value is on record as 9.63%.
